Values joined by “and” are separate entries in the source; they are usually repeats but may differ in a detail not shown here. Equal entries are not always repeated.
Key:
human MGAT2 = human MGAT2 (Homo sapiens, UniProt Q3SYC2); assay: in vitro inhibitory activity against MGAT2 (human); type: biochemical
Experimental: (§1) CpdB, CpdA, and pioglitazone were synthesized at Takeda Pharmaceutical Co., Ltd. (Tokyo, Japan). The in vitro inhibitory activities of CpdB and CpdA against MGAT2 and related acyltransferases (DGAT1, DGAT2, and ACAT1) were evaluated as described in our previous report 17 and patent application 19. Liraglutide (Victoza) was purchased from Novo Nordisk Pharma Ltd. (Bagsvaerd, Denmark). All other chemicals were of analytical grade and purchased from Wako Pure Chemicals (Osaka, Japan).

DGAT1 human = biological target: T1, DGAT1 human (Homo sapiens, UniProt O75907); assay: in vitro inhibitory activity against DGAT1; type: biochemical
T1 sequence (O75907 1-488): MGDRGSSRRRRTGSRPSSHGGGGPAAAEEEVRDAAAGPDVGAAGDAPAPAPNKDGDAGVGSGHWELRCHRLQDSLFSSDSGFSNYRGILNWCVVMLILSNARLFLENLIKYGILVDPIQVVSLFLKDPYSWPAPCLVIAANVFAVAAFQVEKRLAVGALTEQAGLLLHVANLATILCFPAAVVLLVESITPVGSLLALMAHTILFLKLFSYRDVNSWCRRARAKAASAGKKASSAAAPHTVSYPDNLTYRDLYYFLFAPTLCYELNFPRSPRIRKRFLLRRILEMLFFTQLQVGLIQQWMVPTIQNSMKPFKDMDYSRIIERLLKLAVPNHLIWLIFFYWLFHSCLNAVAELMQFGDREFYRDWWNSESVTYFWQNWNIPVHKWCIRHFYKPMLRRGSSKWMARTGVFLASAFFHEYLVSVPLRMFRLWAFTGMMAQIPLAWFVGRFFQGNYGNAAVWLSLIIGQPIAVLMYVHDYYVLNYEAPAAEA
Experimental: as §1

ACAT1 human = biological target: T2, ACAT1 human (Homo sapiens, UniProt P35610); assay: in vitro inhibitory activity against ACAT1; type: biochemical
T2 sequence (P35610 1-550): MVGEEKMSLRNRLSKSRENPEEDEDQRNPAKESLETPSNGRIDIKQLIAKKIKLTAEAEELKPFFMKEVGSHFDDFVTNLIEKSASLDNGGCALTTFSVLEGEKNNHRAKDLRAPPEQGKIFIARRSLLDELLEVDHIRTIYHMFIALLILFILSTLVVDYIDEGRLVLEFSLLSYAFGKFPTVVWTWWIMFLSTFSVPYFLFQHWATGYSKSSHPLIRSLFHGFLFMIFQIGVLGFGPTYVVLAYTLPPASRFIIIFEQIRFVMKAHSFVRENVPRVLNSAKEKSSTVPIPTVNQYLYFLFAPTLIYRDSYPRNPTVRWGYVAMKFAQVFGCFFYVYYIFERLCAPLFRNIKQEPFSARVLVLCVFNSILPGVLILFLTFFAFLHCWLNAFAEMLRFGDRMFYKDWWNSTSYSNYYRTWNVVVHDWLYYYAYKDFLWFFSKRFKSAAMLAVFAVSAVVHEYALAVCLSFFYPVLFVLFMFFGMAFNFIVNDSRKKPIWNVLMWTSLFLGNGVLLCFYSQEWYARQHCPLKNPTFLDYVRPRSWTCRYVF
Experimental: as §1

C57BL/6J mice [1] = assay: Oral meal tolerance test (MTT), plasma chylomicron TG; type: in vivo, mouse; settings: for Plasma CM/TG AUC (0-4 h), AVE: mean, N=6; for Plasma CM/TG AUC (0-4 h), individual animal: single animal values
Experimental: Overnight‐fasted C57BL/6J mice underwent an MTT in the morning. Vehicle, CpdA (3, 10 mg·kg^−1), or Cpd B (3, 10 mg·kg^−1) was administered by gavage. The compound was suspended in 0.5% methylcellulose. […] Thirty minutes after injection, liquid meal (10 mL·kg^−1) comprising an admixture of corn oil and Ensure‐H (3 : 17 v/v) (Abbott Japan Co., Ltd., Tokyo, Japan) was orally loaded. Blood samples were collected preload (defined as 0 h) and 2 and 4 h after fat load, and plasma TG levels were measured. The area under the curve (AUC) of chylomicron TG (CM/TG), which is synthesized from dietary fat in the small intestine, was calculated by subtracting the plasma TG levels of the meal‐unloaded group from that of the meal‐loaded group.

[2] = Pharmacokinetics of CpdB in mice; type: in vivo; settings: C57BL/6J, mouse, plasma, 30 mg·kg^−1, 30 mg/kg single oral, mice fed an HFD, read-out: average plasma CpdB level 24 h after administration
Experimental: Fifty‐four‐week‐old C57BL/6J mice fed an HFD (45% kcal fat, 4.7 kcal·g^−1; D12451; Research Diets, Inc., New Brunswick, NJ, USA) were given a single oral administration of CpdB (30 mg·kg^−1). Blood samples were collected at 0.25, 0.5, 1, 2, 4, 8, and 24 h after the administration. Concentration of plasma CpdB in each sample was measured using liquid chromatography with tandem mass spectrometry as described in our previous report 18.

C57BL/6J mice [3] = assay: Food choice test (HFD vs LFD); type: in vivo, mouse; settings: overnight, CpdB 10 mg/kg oral, liraglutide 0.04 mg/kg sc
Experimental: The choice between HFD (D12451; Research Diets, Inc.) and low‐fat diet (LFD, 10% kcal fat, 3.8 kcal·g^−1; D124510B; Research Diets, Inc.) was assessed in C57BL/6J mice. Following habituation to normal chow, HFD and LFD were presented in separate containers simultaneously, and overnight food intake of each diet was monitored. The mice were divided into groups based on the data of food intake and body weight. Then, vehicle or CpdB (10 mg·kg^−1) was orally administered, and the overnight food intake of each diet was monitored. CpdB was suspended in 0.5% methylcellulose. As a positive control, liraglutide (0.04 mg·kg^−1) dissolved in 10% DMSO/saline was subcutaneously administered.

Sequence of human MGAT2 (Q3SYC2 whole entry): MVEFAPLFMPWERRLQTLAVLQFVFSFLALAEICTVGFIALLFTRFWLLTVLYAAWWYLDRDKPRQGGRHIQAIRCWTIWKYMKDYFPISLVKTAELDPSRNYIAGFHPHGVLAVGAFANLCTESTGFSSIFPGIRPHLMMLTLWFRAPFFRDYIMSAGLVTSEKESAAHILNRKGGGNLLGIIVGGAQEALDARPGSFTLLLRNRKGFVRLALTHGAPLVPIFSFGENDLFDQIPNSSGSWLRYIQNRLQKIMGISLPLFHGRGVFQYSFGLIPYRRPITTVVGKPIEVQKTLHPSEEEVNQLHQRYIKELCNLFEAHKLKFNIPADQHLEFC

## CC(C)(OC(=O)N[C@H]1CC[C@H](OC(=O)N2CCc3cc(S(=O)(=O)Nc4c(F)cc(Cl)cc4F)cc(N4CCCC4=O)c32)CC1)C(F)(F)F [CpdB]
Human MGAT2; MGAT2 vs DGAT1, DGAT2, ACAT1
  selectivity against related acyltransferases (DGAT1, DGAT2, and ACAT1): greater than 300 fold
Human MGAT2; human MGAT2
  IC50: 0.0081 µM
DGAT1 human
  IC50: 2.5 µM
ACAT1 human
  IC50: > 30 µM
C57BL/6J mice [1]; 3 mg/kg oral at -6.5 h
  Plasma CM/TG AUC (0-4 h), AVE: 3977.6 mg/dLxh
  Plasma CM/TG AUC (0-4 h), individual animal: 3401.5 mg/dLxh and 5885.8 mg/dLxh and 3966.4 mg/dLxh and 3504.4 mg/dLxh and 3174.7 mg/dLxh and 3932.8 mg/dLxh
C57BL/6J mice [1]; 10 mg/kg oral at -6.5 h
  decrease of plasma CM/TG AUC compared with the vehicle group: 37%
  Plasma CM/TG AUC (0-4 h), AVE: 4365.7 mg/dLxh
  Plasma CM/TG AUC (0-4 h), individual animal: 5644.3 mg/dLxh and 4575.4 mg/dLxh and 4611.1 mg/dLxh and 3882.4 mg/dLxh and 3535.9 mg/dLxh and 3945.4 mg/dLxh
C57BL/6J mice [1]; 10 mg/kg oral at -16.5 h
  Plasma CM/TG AUC (0-4 h), individual animal: 3845.1 mg/dLxh and 6306.3 mg/dLxh and 6722.1 mg/dLxh and 3383.1 mg/dLxh and 3918.6 mg/dLxh and 3231.9 mg/dLxh
C57BL/6J mice [1]; 10 mg/kg oral
  Plasma CM/TG AUC (0-4 h), AVE: 4567.8 mg/dLxh
[2]
  concentration at 24 h: 0.58 µM
C57BL/6J mice [3]; mean, N=5
  Food intake, energy intake of HFD, AVE: 9.74 kcal
  Food intake, energy intake of low-fat diet, AVE: 0.16 kcal
  Food intake, total energy intake, AVE: 9.90 kcal
C57BL/6J mice [3]; single animal values
  Food intake, energy intake of HFD, individual animal: 9.96 kcal and 11.47 kcal and 8.41 kcal and 8.88 kcal
  Food intake, energy intake of low-fat diet, individual animal: 0.23 kcal and 0.00 kcal and 0.34 kcal
  Food intake, total energy intake, individual animal: 10.19 kcal and 11.47 kcal and 8.41 kcal and 9.23 kcal
